Assay results as given in ChEMBL document CHEMBL1152723, “Remarkable enhancement in the DNA-binding ability of C2-fluoro substituted pyrrolo[2,1-c][1,4]benzodiazepines and their anticancer potential” (2009).

Tests used:
UACC-62 = experiment: Growth inhibition of human UACC62 cells after 48 hrs by sulforhodamine B protein assay; type: functional; conditions: UACC-62, 48 h
IGROV-1 = experiment: Growth inhibition of human IGROV1 cells after 48 hrs by sulforhodamine B protein assay; type: functional; conditions: IGROV-1, 48 h
OVCAR-3 = experiment: Growth inhibition of human OVCAR-3 cells after 48 hrs by sulforhodamine B protein assay; type: functional; conditions: OVCAR-3, 48 h
OVCAR-4 = experiment: Growth inhibition of human OVCAR4 cells after 48 hrs by sulforhodamine B protein assay; type: functional; conditions: OVCAR-4, 48 h
OVCAR-5 = experiment: Growth inhibition of human OVCAR5 cells after 48 hrs by sulforhodamine B protein assay; type: functional; conditions: OVCAR-5, 48 h
OVCAR-8 = experiment: Growth inhibition of human OVCAR8 cells after 48 hrs by sulforhodamine B protein assay; type: functional; conditions: OVCAR-8, 48 h
SK-OV-3 = experiment: Growth inhibition of human SKOV3 cells after 48 hrs by sulforhodamine B protein assay; type: functional; conditions: SK-OV-3, 48 h
786-0 = experiment: Growth inhibition of human 786-0 cells after 48 hrs by sulforhodamine B protein assay; type: functional; conditions: 786-0, 48 h
ACHN = experiment: Growth inhibition of human ACHN cells after 48 hrs by sulforhodamine B protein assay; type: functional
CAKI-1 = experiment: Growth inhibition of human Caki1 cells after 48 hrs by sulforhodamine B protein assay; type: functional; conditions: CAKI-1, 48 h
SN12C = experiment: Growth inhibition of human SN12C cells after 48 hrs by sulforhodamine B protein assay; type: functional
UO-31 = experiment: Growth inhibition of human UO31 cells after 48 hrs by sulforhodamine B protein assay; type: functional; conditions: UO-31, 48 h
PC-3 = experiment: Growth inhibition of human PC3 cells after 48 hrs by sulforhodamine B protein assay; type: functional; conditions: PC-3, 48 h
DU-145 = experiment: Growth inhibition of human DU145 cells after 48 hrs by sulforhodamine B protein assay; type: functional; conditions: DU-145, 48 h
MCF7 = experiment: Growth inhibition of human MCF7 cells after 48 hrs by sulforhodamine B protein assay; type: functional; conditions: MCF7, 48 h
NCI/ADR-RES = experiment: Growth inhibition of human NCI/ADR-RES cells after 48 hrs by sulforhodamine B protein assay; type: functional
MDA-MB-231 = experiment: Growth inhibition of human MDA-MB-231 cells after 48 hrs by sulforhodamine B protein assay; type: functional; conditions: MDA-MB-231, 48 h
MDA-MB-435 = experiment: Growth inhibition of human MDA-MB-435 cells after 48 hrs by sulforhodamine B protein assay; type: functional; conditions: MDA-MB-435, 48 h
BT-549 = experiment: Growth inhibition of human BT549 cells after 48 hrs by sulforhodamine B protein assay; type: functional; conditions: BT-549, 48 h
T47D = experiment: Growth inhibition of human T47D cells after 48 hrs by sulforhodamine B protein assay; type: functional
MDA-MB-468 = experiment: Growth inhibition of human MDA-MB-468 cells after 48 hrs by sulforhodamine B protein assay; type: functional; conditions: MDA-MB-468, 48 h
DNA = experiment: Binding affinity to calf thymus DNA assessed as change in melting temperature at a compound to DNA molar ratio of 1:5 at pH 7 by thermal denaturation assay; type: nucleic-acid assay; conditions: Bos taurus
HL-60(TB) = experiment: Growth inhibition of human HL-60(TB) cells after 48 hrs by sulforhodamine B protein assay; type: functional; conditions: HL-60, 48 h
MOLT-4 = experiment: Growth inhibition of human MOLT4 cells after 48 hrs by sulforhodamine B protein assay; type: functional; conditions: MOLT-4, 48 h
[1] = Growth inhibition of human […] cells after 48 hrs by sulforhodamine B protein assay; type: functional
SR = experiment: Growth inhibition of human SR cells after 48 hrs by sulforhodamine B protein assay; type: functional
A549 = experiment: Growth inhibition of human A549 cells after 48 hrs by sulforhodamine B protein assay; type: functional; conditions: A549, 48 h
EKVX = experiment: Growth inhibition of human EKVX cells after 48 hrs by sulforhodamine B protein assay; type: functional
HOP-92 = experiment: Growth inhibition of human HOP92 cells after 48 hrs by sulforhodamine B protein assay; type: functional; conditions: HOP-92, 48 h
NCI-H226 = experiment: Growth inhibition of human NCI-H226 cells after 48 hrs by sulforhodamine B protein assay; type: functional; conditions: NCI-H226, 48 h
NCI-H23 = experiment: Growth inhibition of human NCI-H23 cells after 48 hrs by sulforhodamine B protein assay; type: functional; conditions: NCI-H23, 48 h
NCI-H322M = experiment: Growth inhibition of human NCI-H322M cells after 48 hrs by sulforhodamine B protein assay; type: functional
NCI-H460 = experiment: Growth inhibition of human NCI-H460 cells after 48 hrs by sulforhodamine B protein assay; type: functional; conditions: NCI-H460, 48 h
COLO 205 = experiment: Growth inhibition of human COLO205 cells after 48 hrs by sulforhodamine B protein assay; type: functional; conditions: COLO 205, 48 h
HCC 2998 = experiment: Growth inhibition of human HCC2998 cells after 48 hrs by sulforhodamine B protein assay; type: functional; conditions: HCC 2998, 48 h
HCT-116 = experiment: Growth inhibition of human HCT116 cells after 48 hrs by sulforhodamine B protein assay; type: functional; conditions: HCT-116, 48 h
HCT-15 = experiment: Growth inhibition of human HCT15 cells after 48 hrs by sulforhodamine B protein assay; type: functional; conditions: HCT-15, 48 h
HT-29 = experiment: Growth inhibition of human HT-29 cells after 48 hrs by sulforhodamine B protein assay; type: functional; conditions: HT-29, 48 h
KM12 = experiment: Growth inhibition of human KM12 cells after 48 hrs by sulforhodamine B protein assay; type: functional; conditions: KM12, 48 h
SW-620 = experiment: Growth inhibition of human SW620 cells after 48 hrs by sulforhodamine B protein assay; type: functional; conditions: SW-620, 48 h
SF-268 = experiment: Growth inhibition of human SF268 cells after 48 hrs by sulforhodamine B protein assay; type: functional; conditions: SF-268, 48 h
SNB-19 = experiment: Growth inhibition of human SNB19 cells after 48 hrs by sulforhodamine B protein assay; type: functional; conditions: SNB-19, 48 h
SNB-75 = experiment: Growth inhibition of human SNB75 cells after 48 hrs by sulforhodamine B protein assay; type: functional; conditions: SNB-75, 48 h
LOX IMVI = experiment: Growth inhibition of human LOXIMVI cells after 48 hrs by sulforhodamine B protein assay; type: functional
SK-MEL-2 = experiment: Growth inhibition of human SK-MEL-2 cells after 48 hrs by sulforhodamine B protein assay; type: functional; conditions: SK-MEL-2, 48 h
SK-MEL-28 = experiment: Growth inhibition of human SK-MEL-28 cells after 48 hrs by sulforhodamine B protein assay; type: functional; conditions: SK-MEL-28, 48 h
SK-MEL-5 = experiment: Growth inhibition of human SK-MEL-5 cells after 48 hrs by sulforhodamine B protein assay; type: functional; conditions: SK-MEL-5, 48 h
UACC-257 = experiment: Growth inhibition of human UACC257 cells after 48 hrs by sulforhodamine B protein assay; type: functional; conditions: UACC-257, 48 h

## COc1cc2c(cc1OCCCN1CCN(CCCOc3cc4c(cc3OC)C(=O)N3CC(F)C[C@H]3C=N4)CC1)N=C[C@@H]1CC(F)CN1C2=O (stereo partly drawn)
UACC-62
  GI50: < 80 nM
IGROV-1
  GI50: < 50 nM
OVCAR-3
  GI50: < 40 nM
OVCAR-4
  GI50: 460 nM
OVCAR-5
  GI50: 160 nM
OVCAR-8
  GI50: 100 nM
SK-OV-3
  GI50: < 70 nM
786-0
  GI50: < 30 nM
ACHN
  GI50: 150 nM
CAKI-1
  GI50: 20 nM
SN12C
  GI50: < 10 nM
UO-31
  GI50: 1030 nM
PC-3
  GI50: 10 nM
DU-145
  GI50: 40 nM
MCF7
  GI50: < 10 nM
NCI/ADR-RES
  GI50: 5.25 µM
MDA-MB-231
  GI50: 130 nM
MDA-MB-435
  GI50: < 30 nM
BT-549
  GI50: < 90 nM
T47D
  GI50: < 10 nM
MDA-MB-468
  GI50: < 10 nM
DNA
  ΔTm: 37 °C
HL-60(TB)
  GI50: < 10 nM
MOLT-4
  GI50: < 10 nM
[1]
  GI50: < 20 nM
SR
  GI50: < 10 nM
A549
  GI50: 120 nM
EKVX
  GI50: 170 nM
HOP-92
  GI50: < 90 nM
NCI-H226
  GI50: 100 nM
NCI-H23
  GI50: < 30 nM
NCI-H322M
  GI50: 260 nM
NCI-H460
  GI50: < 10 nM
COLO 205
  GI50: < 40 nM
HCC 2998
  GI50: 110 nM
HCT-116
  GI50: < 20 nM
HCT-15
  GI50: 2560 nM
HT-29
  GI50: 170 nM
KM12
  GI50: 100 nM
SW-620
  GI50: < 50 nM
SF-268
  GI50: < 10 nM
SNB-19
  GI50: < 20 nM
SNB-75
  GI50: < 30 nM
LOX IMVI
  GI50: < 10 nM
SK-MEL-2
  GI50: 500 nM
SK-MEL-28
  GI50: < 30 nM
SK-MEL-5
  GI50: < 40 nM
UACC-257
  GI50: 1270 nM
